Values of other authors in US20200132604A1, “METHODS OF DETERMINING PROTEIN STRUCTURE USING TWO-PHOTON FLUORESCENCE MEASUREMENTS” (Biodesy, Inc., priority 2017, published 2020).

What was measured:
[1] = system: human IgG-Fc; settings: Sugita, et al. (2013)
[2] = target: monomeric forms of avidin or streptavidin; settings: read-out: biotin-binding affinity

Molecule	affinity [1] [M⁻¹]	Kd [2] [nM]
NARKFYKG	6.5e+06	–
NKFRGKYK	8.9e+06	–
O=C(O)CCCC[C@@H]1SC[C@@H]2NC(=O)N[C@@H]21 [biotin]	–	~10
